Laboratory results as given in patent US20260042762A1 (Kymera Therapeutics, Inc., priority 2018, published 2026).
Where a name gives a salt, the structure may show the parent alone.

Target: T1, MerTK (Homo sapiens, UniProt Q12866)
T1 construct: endogenous in cells; host or cells: Jurkat cells
T1 sequence (Q12866 21-999): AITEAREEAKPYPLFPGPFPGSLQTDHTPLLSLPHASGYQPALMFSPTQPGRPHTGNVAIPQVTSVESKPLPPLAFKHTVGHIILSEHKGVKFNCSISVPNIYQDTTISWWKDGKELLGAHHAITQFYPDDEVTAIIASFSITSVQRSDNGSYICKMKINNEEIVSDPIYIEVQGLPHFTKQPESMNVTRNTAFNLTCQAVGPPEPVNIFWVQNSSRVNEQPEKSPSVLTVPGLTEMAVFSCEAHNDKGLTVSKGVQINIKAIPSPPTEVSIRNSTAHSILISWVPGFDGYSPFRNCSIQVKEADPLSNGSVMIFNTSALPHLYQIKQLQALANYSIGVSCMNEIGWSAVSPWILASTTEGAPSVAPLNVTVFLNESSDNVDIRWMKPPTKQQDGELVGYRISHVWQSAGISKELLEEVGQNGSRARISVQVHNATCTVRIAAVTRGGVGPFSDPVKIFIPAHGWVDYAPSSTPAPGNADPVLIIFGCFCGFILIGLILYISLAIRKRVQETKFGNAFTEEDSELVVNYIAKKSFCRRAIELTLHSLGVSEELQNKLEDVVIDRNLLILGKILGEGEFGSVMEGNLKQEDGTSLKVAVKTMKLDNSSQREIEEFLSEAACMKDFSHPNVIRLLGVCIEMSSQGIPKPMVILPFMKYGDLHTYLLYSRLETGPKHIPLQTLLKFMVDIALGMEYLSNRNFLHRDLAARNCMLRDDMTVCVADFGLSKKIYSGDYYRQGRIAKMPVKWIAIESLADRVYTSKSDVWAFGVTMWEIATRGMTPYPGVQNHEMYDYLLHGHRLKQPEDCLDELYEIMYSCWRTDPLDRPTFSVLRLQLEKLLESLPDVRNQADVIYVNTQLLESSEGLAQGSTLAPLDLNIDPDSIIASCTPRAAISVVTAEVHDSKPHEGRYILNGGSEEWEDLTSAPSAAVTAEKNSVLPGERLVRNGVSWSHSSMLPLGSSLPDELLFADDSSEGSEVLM
Assay: MerTk degradation in Jurkat cells (Western blot)
Assay type: cell-based
Settings: 0.001-1 μM, 4 hour-incubation at 37° C.; for Dmax: Jurkat, 4 h, read-out: Jurkat Max % MerTK Degradation
How it was run: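 MerTK degradation was read by near-infrared Western blot, normalized to actin, in BCA-quantified lysates of Jurkat cells exposed to 0.001-1 μM compound for 4 h at 37 °C.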

Row | SMILES | Dmax | Jurkat Max % MerTK Degradation
1 | Cn1c(=O)n(C2CCC(=O)NC2=O)c2ccc(CCCOCCN3CCCC(N4CCN(Cc5ccc(-c6cn([C@H]7CC[C@H](O)CC7)c7nc(NCCC(F)(F)F)ncc67)cc5)CC4)C3)cc21.O=CO (stereo partly drawn) [I-95, 3-(3-methyl-2-oxo-5-[3-[2-(3-[4-[(4-[7-[trans-4-hydroxycyclohexyl]-2-[(3,3,3-trifluoropropyl)amino]-7H-pyrrolo[2,3-d]pyrimidin-5-yl]phenyl)methyl]piperazin-1-yl]piperidin-1-yl)ethoxy]propyl]-2,3-dihydro-1H-1,3-benzodiazol-1-y1)piperidine-2,6-dione; formic acid] | – | A (maximum MerTK degradation greater than 50%)
2 | CCCCNc1ncc2c(C3=CCN(CCOCCOCCOCCOCCCc4ccc5c(c4)n(C)c(=O)n5[C@H]4CCC(=O)NC4=O)CC3)cn([C@H]3CC[C@H](O)CC3)c2n1 [I-96, 3-[5-(1-[4-[2-(butylamino)-7-[trans-4-hydroxycyclohexyl]-7H-pyrrolo[2,3-d]pyrimidin-5-y1]-1,2,3,6-tetrahydropyridin-1-y1]-3,6,9,12-tetraoxapentadecan-15-yl)-3-methyl-2-oxo-2,3-dihydro-1H-1,3-benzodiazol-1-yl]piperidine-2,6-dione; formic acid] | > 50% | –
3 | CCCCNc1ncc2c(C3CCN(CCOCCOCCOCCOCCCc4ccc5c(c4)n(C)c(=O)n5[C@H]4CCC(=O)NC4=O)CC3)cn([C@H]3CC[C@H](O)CC3)c2n1 [I-97, 3-[5-(1-[4-[2-(butylamino)-7-[trans-4-hydroxycyclohexyl]-7H-pyrrolo[2,3-d]pyrimidin-5-y1]piperidin-1-y1]-3,6,9,12-tetraoxapentadecan-15-y1)-3-methyl-2-oxo-2,3-dihydro-1H-1,3-benzodiazol-1-y1]piperidine-2,6-dione; bis(formic acid)] | > 50% | –
4 | Cn1c(=O)n(C2CCC(=O)NC2=O)c2ccc(CN3CCC(OCCN4CCN(Cc5ccc(-c6cn([C@H]7CC[C@H](O)CC7)c7nc(NCCC(F)(F)F)ncc67)cc5)CC4)C3)cc21 (stereo partly drawn) [I-98, 3-(3-methyl-2-oxo-5-[[3-(2-[4-[(4-[7-[trans-4-hydroxycyclohexy1]-2-[(3,3,3-trifluoropropyl)amino]-7H-pyrrolo[2,3-d]pyrimidin-5-y1]phenyl)methyl]piperazin-1-yl]ethoxy)pyrrolidin-1-y1]methyl]-2,3-dihydro-1H-1,3-benzodiazol-1-yl)piperidine-2,6-dione; formic acid] | > 50% | –
5 | O=C1CC[C@H](n2c3ccc(NCCOCCOCCNCc4ccc(-c5cn([C@H]6CC[C@H](O)CC6)c6nc(NCCC(F)(F)F)ncc56)cc4)cc3c3cccnc32)C(=O)N1 [I-99, 3-[6-[11-(4-[7-[trans-4-hydroxycyclohexyl]-2-[(3,3,3-trifluoropropyl)amino]-7H-pyrrolo[2,3-d]pyrimidin-5-yl]phenyl)-4,7-dioxa-1,10-diazaundecan-1-y1]-9H-pyrido[2,3-b]indol-9-yl]piperidine-2,6-dione; trihydrochloride] | > 50% | –
6 | CN1C(=O)CC[C@H](n2c(=O)n(C)c3cc(CCCOCCOCCN4CCN(Cc5ccc(-c6cn([C@H]7CC[C@H](O)CC7)c7nc(NCCC(F)(F)F)ncc67)cc5)CC4)ccc32)C1=O [I-105, 1-methyl-3-(3-methyl-2-oxo-5-[3-[2-(2-[4-[(4-[7-[trans-4-hydroxycyclohexyl]-2-[(3,3,3-trifluoropropyl)amino]-7H-pyrrolo[2,3-d]pyrimidin-5-yl]phenyl)methyl]piperazin-1-yl]ethoxy)ethoxy]propyl]-2,3-dihydro-1H-1,3-benzodiazol-1-yl)piperidine-2,6-dione] | 20 to 50% | –
7 | C[C@H]1CN(Cc2ccc(-c3cn([C@H]4CC[C@H](O)CC4)c4nc(NCCC(F)(F)F)ncc34)cc2)CCN1CCCOCCCc1ccc2c(c1)n(C)c(=O)n2C1CCC(=O)NC1=O (stereo partly drawn) [I-106, 3-[3-methyl-5-(3-[3-[(2S)-2-methyl-4-[(4-[7-[trans-4-hydroxycyclohexy1]-2-[(3,3,3-trifluoropropyl)amino]-7H-pyrrolo[2,3-d]pyrimidin-5-yl]phenyl)methyl]piperazin-1-yl]propoxy]propyl)-2-oxo-2,3-dihydro-1H-1,3-benzodiazol-1-yl]piperidine-2,6-dione; formic acid] | > 50% | –

Second part, led by results:

Row | Dmax | SMILES | Jurkat Max % MerTK Degradation
8 | > 50% | Cn1c(=O)n(C2CCC(=O)NC2=O)c2ccc(CCCOCCN3CCC(N4CCN(Cc5ccc(-c6cn([C@H]7CC[C@H](O)CC7)c7nc(NCCC(F)(F)F)ncc67)cc5)CC4)C3)cc21 (stereo partly drawn) [I-93, 3-(3-methyl-2-oxo-5-[3-[2-(3-[4-[(4-[7-[trans-4-hydroxycyclohexy1]-2-[(3,3,3-trifluoropropyl)amino]-7H-pyrrolo[2,3-d]pyrimidin-5-yl]phenyl)methyl]piperazin-1-yl]pyrrolidin-1-y1)ethoxy]propyl]-2,3-dihydro-1H-1,3-benzodiazol-1-yl)piperidine-2,6-dione; formic acid] | –
9 | > 50% | Cn1c(=O)n([C@H]2CCC(=O)NC2=O)c2ccc(CCCOCCN3CCC(N4CCN(Cc5ccc(-c6cn([C@H]7CC[C@H](O)CC7)c7nc(NCCC(F)(F)F)ncc67)cc5)CC4)CC3)cc21 [I-94, 3-(3-methyl-2-oxo-5-[3-[2-(4-[4-[(4-[7-[trans-4-hydroxycyclohexyl]-2-[(3,3,3-trifluoropropyl)amino]-7H-pyrrolo[2,3-d]pyrimidin-5-yl]phenyl)methyl]piperazin-1-yl]piperidin-1-yl)ethoxy]propyl]-2,3-dihydro-1H-1,3-benzodiazol-1-y1)piperidine-2,6-dione; formic acid] | –
10 | > 50% | Cn1c(=O)n([C@H]2CCC(=O)NC2=O)c2ccc(CCCOCCCN3CCN(Cc4ccc(-c5cn([C@H]6CC[C@H](O)CC6)c6nc(NCC(F)F)ncc56)cc4)CC3)cc21 [I-100, 3-[5-[3-(3-[4-[(4-[2-[(2,2-difluoroethyl)amino]-7-[trans-4-hydroxycyclohexyl]-7H-pyrrolo[2,3-d]pyrimidin-5-yl]phenyl)methyl]piperazin-1-yl]propoxy)propyl]-3-methyl-2-oxo-2,3-dihydro-1H-1,3-benzodiazol-1-yl]piperidine-2,6-dione; formic acid] | –
11 | > 50% | C[C@H](c1ccc(-c2cn([C@H]3CC[C@H](O)CC3)c3nc(NCCC(F)(F)F)ncc23)cc1)N1CCN(CCCOCCCc2ccc3c(c2)n(C)c(=O)n3C2CCC(=O)NC2=O)CC1 (stereo partly drawn) [I-101] | –
12 | > 50% | C[C@@H](c1ccc(-c2cn([C@H]3CC[C@H](O)CC3)c3nc(NCCC(F)(F)F)ncc23)cc1)N1CCN(CCCOCCCc2ccc3c(c2)n(C)c(=O)n3C2CCC(=O)NC2=O)CC1 (stereo partly drawn) [I-102, 3-[3-methyl-2-oxo-5-[3-(3-[4-[(1S)-1-(4-[7-[trans-4-hydroxycyclohexy1]-2-[(3,3,3-trifluoropropyl)amino]-7H-pyrrolo[2,3-d]pyrimidin-5-yl]phenyl)ethyl]piperazin-1-yl]propoxy)propyl]-2,3-dihydro-1H-1,3-benzodiazol-1-yl]piperidine-2,6-dione; formic acid] | –
13 | > 50% | CCCCNc1ncc2c(-c3ccc([C@@H](C)N4CCN(CCCOCCCc5ccc6c(c5)n(C)c(=O)n6C5CCC(=O)NC5=O)CC4)cc3)cn([C@H]3CC[C@H](O)CC3)c2n1 (stereo partly drawn) [I-103, 3-[5-[3-(3-[4-[(1R)-1-[4-[2-(butylamino)-7-[trans-4-hydroxycyclohexyl]-7H-pyrrolo[2,3-d]pyrimidin-5-yl]phenyl]ethyl]piperazin-1-yl]propoxy)propyl]-3-methyl-2-oxo-2,3-dihydro-1H-1,3-benzodiazol-1-yl]piperidine-2,6-dione] | –
14 | > 50% | CCCCNc1ncc2c(-c3ccc([C@H](C)N4CCN(CCCOCCCc5ccc6c(c5)n(C)c(=O)n6C5CCC(=O)NC5=O)CC4)cc3)cn([C@H]3CC[C@H](O)CC3)c2n1 (stereo partly drawn) [I-104, 3-[5-[3-(3-[4-[(1S)-1-[4-[2-(butylamino)-7-[trans-4-hydroxycyclohexyl]-7H-pyrrolo[2,3-d]pyrimidin-5-yl]phenyl]ethyl]piperazin-1-yl]propoxy)propyl]-3-methyl-2-oxo-2,3-dihydro-1H-1,3-benzodiazol-1-y1]piperidine-2,6-dione] | –
15 | > 50% | Cn1c(=O)n([C@H]2CCC(=O)NC2=O)c2ccc(CCCOCCCN3CCN(Cc4ccc(-c5cn([C@H]6CC[C@H](O)CC6)c6nc(NC7CC7)ncc56)cc4)CC3)cc21 [I-108, 3-[5-(3-[3-[4-([4-[2-(cyclopropylamino)-7-[trans-4-hydroxycyclohexyl]-7H-pyrrolo[2,3-d]pyrimidin-5-yl]phenyl]methyl)piperazin-1-yl]propoxy]propyl)-3-methyl-2-oxo-2,3-dihydro-1H-1,3-benzodiazol-1-yl]piperidine-2,6-dione; bis(formic acid)] | –
